Reference: article PMC2698315 (Journal of Chemical Biology, 2008)

Key:
[1] = system: Vascular endothelial protein tyrosine phosphatase (VE-PTP); assay: Phosphatase inhibition assay; format: biochemical; details: 4PL fit, 37 °C, 1 mM substrate, Fig. 3b (quadrant 2)
[2] = target: vaccinia virus VH1-related (VHR) phosphatase (Homo sapiens, UniProt P51452); format: biochemical; details: 4PL fit, 37 °C, 5 mM substrate, Fig. 3a (quadrant 3)
vaccinia virus VH1-related (VHR) phosphatase, sequence (P51452 whole entry): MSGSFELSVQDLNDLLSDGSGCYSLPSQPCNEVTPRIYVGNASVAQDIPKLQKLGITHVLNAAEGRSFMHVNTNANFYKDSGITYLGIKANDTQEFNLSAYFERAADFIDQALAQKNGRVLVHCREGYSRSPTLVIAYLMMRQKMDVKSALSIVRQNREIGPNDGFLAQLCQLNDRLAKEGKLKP

In the case of `O=C(O[C@@H]1Cc2c(O)cc(O)cc2O[C@@H]1c1cc(O)c(O)c(O)c1)c1cc(O)c(O)c(O)c1` [compound 172, Epigallocatechin-3-monogallate], the Hill coefficient [1] is reported as 0.55.

In the case of `CC(C)(c1ccc(NS(=O)(=O)C(F)(F)F)cc1)c1ccc(C(C)(C)c2ccc(NS(=O)(=O)C(F)(F)F)cc2)cc1` [compound 281, bis(4-trifluoromethylsulfonamidophenyl)-1,4-diisopropylbenzene], the Hill coefficient [2] is reported as 2.7.
